pIC50: −log10 of the molar value.
Molecular target: LRRK2(G2019S mutation, GST-LRRK2(amino acids 970-2527)) (Homo sapiens (Human), UniProt Q5S007, G2019S)
Assay: LRRK2 Km ATP LanthaScreen Assay
Format: biochemical
Procedure, shortened: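 TR-FRET: GST-LRRK2 970-2527 G2019S (2.5 nM solution) preincubated 30 min with compound (98 μM top, 1:2.15 dilutions), then 800 nM fluorescein-LRRKtide and 184 μM ATP solution added for 60 min at room temperature in Tris pH 8.5 buffer. Stopped with EDTA and Tb anti-phospho-LRRKtide antibody; IC50 is a mean of several tests.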

LRRK2(G2019S mutation, GST-LRRK2(amino acids 970-2527)), sequence (Q5S007 970-2527 G2019S): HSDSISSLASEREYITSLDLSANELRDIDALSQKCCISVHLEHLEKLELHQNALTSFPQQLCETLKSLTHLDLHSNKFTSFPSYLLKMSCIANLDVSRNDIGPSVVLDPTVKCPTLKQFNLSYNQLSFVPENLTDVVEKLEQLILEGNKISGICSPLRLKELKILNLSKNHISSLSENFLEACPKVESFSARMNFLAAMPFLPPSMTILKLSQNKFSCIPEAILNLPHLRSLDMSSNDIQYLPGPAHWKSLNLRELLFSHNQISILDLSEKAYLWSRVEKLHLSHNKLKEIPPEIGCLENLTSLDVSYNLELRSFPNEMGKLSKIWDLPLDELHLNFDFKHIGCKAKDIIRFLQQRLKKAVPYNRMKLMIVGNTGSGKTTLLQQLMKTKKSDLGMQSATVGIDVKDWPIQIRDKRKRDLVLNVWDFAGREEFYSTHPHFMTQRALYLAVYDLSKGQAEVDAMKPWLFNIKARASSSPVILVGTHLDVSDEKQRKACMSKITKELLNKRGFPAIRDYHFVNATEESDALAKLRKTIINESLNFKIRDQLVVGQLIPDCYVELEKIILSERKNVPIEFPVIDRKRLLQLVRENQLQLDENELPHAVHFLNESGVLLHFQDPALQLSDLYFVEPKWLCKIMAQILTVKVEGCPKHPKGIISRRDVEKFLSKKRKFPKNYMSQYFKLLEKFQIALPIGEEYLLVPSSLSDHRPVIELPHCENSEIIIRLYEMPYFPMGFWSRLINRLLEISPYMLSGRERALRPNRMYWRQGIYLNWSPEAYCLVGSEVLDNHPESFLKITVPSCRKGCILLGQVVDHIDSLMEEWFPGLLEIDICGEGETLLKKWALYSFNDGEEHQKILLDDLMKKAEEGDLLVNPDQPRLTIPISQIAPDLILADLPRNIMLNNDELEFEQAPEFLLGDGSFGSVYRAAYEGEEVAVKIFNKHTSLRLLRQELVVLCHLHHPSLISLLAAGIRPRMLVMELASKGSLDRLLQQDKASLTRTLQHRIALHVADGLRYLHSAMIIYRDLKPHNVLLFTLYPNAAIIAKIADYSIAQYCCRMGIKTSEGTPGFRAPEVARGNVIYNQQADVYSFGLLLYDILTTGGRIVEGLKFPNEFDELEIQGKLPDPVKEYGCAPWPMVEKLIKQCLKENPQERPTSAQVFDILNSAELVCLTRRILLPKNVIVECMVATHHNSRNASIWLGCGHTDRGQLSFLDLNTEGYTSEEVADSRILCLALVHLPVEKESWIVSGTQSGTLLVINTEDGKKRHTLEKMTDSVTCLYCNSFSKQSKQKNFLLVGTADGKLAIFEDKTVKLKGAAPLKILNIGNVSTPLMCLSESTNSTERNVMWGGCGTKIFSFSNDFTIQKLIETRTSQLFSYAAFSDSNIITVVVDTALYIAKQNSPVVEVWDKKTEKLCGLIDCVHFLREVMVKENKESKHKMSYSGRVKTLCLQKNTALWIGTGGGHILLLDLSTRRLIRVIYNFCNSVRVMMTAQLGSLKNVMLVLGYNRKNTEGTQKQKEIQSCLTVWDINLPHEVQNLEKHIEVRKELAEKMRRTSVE

Compound | pIC50 (Examples P1-P18) | pIC50 (Examples Q1-Q20) | also measured
COC[C@H](C)Oc1ccc2[nH]nc(-c3cc(N4CCC5(CC4)CNC(=O)CO5)ncn3)c2c1 [Example O23] | – | – | pIC50 (Examples O1-O23): 8.46
N#Cc1cc(-c2ccc3[nH]nc(-c4cc(N5CCOCC5)ncn4)c3c2)ccn1 [Example P1] | 6.47 | – | –
c1nc(-c2n[nH]c3ccc(-c4ccc5ncnn5c4)cc23)cc(N2CCOCC2)n1 [Example P2] | 6.72 | – | –
c1cc(-c2ccc3[nH]nc(-c4cc(N5CCOCC5)ncn4)c3c2)ccn1 [Example P3] | 7.01 | – | –
Cc1noc(C)c1-c1ccc2[nH]nc(-c3cc(N4CCOCC4)ncn3)c2c1 [Example P4] | 7.31 | – | –
c1ncc(-c2ccc3[nH]nc(-c4cc(N5CCOCC5)ncn4)c3c2)cn1 [Example P5] | 7.39 | – | –
N#Cc1ccc(-c2ccc3[nH]nc(-c4cc(N5CCOCC5)ncn4)c3c2)cc1 [Example P6] | 6.82 | – | –
N#Cc1cccc(-c2ccc3[nH]nc(-c4cc(N5CCOCC5)ncn4)c3c2)c1 [Example P7] | 7.09 | – | –
CCN(CC)C(=O)c1ccc(-c2ccc3[nH]nc(-c4cc(N5CCOCC5)ncn4)c3c2)cc1 [Example P8] | 6.22 | – | –
O=S(=O)(c1ccc(-c2ccc3[nH]nc(-c4cc(N5CCOCC5)ncn4)c3c2)cc1)N1CCCC1 [Example P9] | 6.04 | – | –
COc1cnc(-c2ccc3[nH]nc(-c4cc(N5CCOCC5)ncn4)c3c2)cn1 [Example P10] | 6.57 | – | –
COc1cncc(-c2ccc3[nH]nc(-c4cc(N5CCOCC5)ncn4)c3c2)n1 [Example P11] | 7.74 | – | –
c1nc(-c2n[nH]c3ccc(-c4ccc5nncn5c4)cc23)cc(N2CCOCC2)n1 [Example P12] | 7.25 | – | –
Cn1nccc1-c1ccc2[nH]nc(-c3cc(N4CCOCC4)ncn3)c2c1 [Example P13] | 7.34 | – | –
COc1ncccc1-c1ccc2[nH]nc(-c3cc(N4CCOCC4)ncn3)c2c1 [Example P14] | 7.42 | – | –
Cc1nocc1-c1ccc2[nH]nc(-c3cc(N4CCOCC4)ncn3)c2c1 [Example P15] | 7.23 | – | –

Compound | pIC50 (Examples P1-P18) | pIC50 (Examples Q1-Q20) | also measured
COCCn1cc(-c2ccc3[nH]nc(-c4cc(N5CCOCC5)ncn4)c3c2)cn1 [Example P16] | 8.82 | – | –
COc1ccc(-c2ccc3[nH]nc(-c4cc(N5CCOCC5)ncn4)c3c2)cn1 [Example P17] | 7.51 | – | –
O=C(NCCO)c1ccc(-c2ccc3[nH]nc(-c4cc(N5CCOCC5)ncn4)c3c2)cc1 [Example P18] | 6.81 | – | –
C[C@@H]1CN(c2cc(-c3n[nH]c4ccc(-c5ccc6ncnn6c5)cc34)ncn2)C[C@H](C)O1 [Example Q1] | – | 6.62 | –
COc1ncccc1-c1ccc2[nH]nc(-c3cc(N4C[C@@H](C)O[C@@H](C)C4)ncn3)c2c1 [Example Q2] | – | 6.80 | –
C[C@@H]1CN(c2cc(-c3n[nH]c4ccc(-c5ccnn5C)cc34)ncn2)C[C@H](C)O1 [Example Q3] | – | 7.49 | –
Cc1cncc(-c2ccc3[nH]nc(-c4cc(N5C[C@@H](C)O[C@@H](C)C5)ncn4)c3c2)c1 [Example Q4] | – | 8.66 | –
Cc1nocc1-c1ccc2[nH]nc(-c3cc(N4C[C@@H](C)O[C@@H](C)C4)ncn3)c2c1 [Example Q5] | – | 7.40 | –
C[C@@H]1CN(c2cc(-c3n[nH]c4ccc(-c5ccncc5)cc34)ncn2)C[C@H](C)O1 [Example Q6] | – | 7.31 | –
COc1cnc(-c2ccc3[nH]nc(-c4cc(N5C[C@@H](C)O[C@@H](C)C5)ncn4)c3c2)cn1 [Example Q7] | – | 7.20 | –
C[C@@H]1CN(c2cc(-c3n[nH]c4ccc(-c5cncnc5)cc34)ncn2)C[C@H](C)O1 [Example Q8] | – | 7.52 | –
COc1ccc(-c2ccc3[nH]nc(-c4cc(N5C[C@@H](C)O[C@@H](C)C5)ncn4)c3c2)cn1 [Example Q9] | – | 7.39 | –
COc1cncc(-c2ccc3[nH]nc(-c4cc(N5C[C@@H](C)O[C@@H](C)C5)ncn4)c3c2)n1 [Example Q10] | – | 8.62 | –
C[C@@H]1CN(c2cc(-c3n[nH]c4ccc(-c5ccnc(C#N)c5)cc34)ncn2)C[C@H](C)O1 [Example Q11] | – | 6.77 | –
Cc1ncc(-c2ccc3[nH]nc(-c4cc(N5C[C@@H](C)O[C@@H](C)C5)ncn4)c3c2)nc1C [Example Q12] | – | 7.76 | –
